Data taken from US20040077689A1, “Abc expression promoters” (priority 2001, published 2004).
Structures can show the parent of a compound that is named as a salt.

Columns and labels:
Type in all cases: cell-based
ACAT-1 mRNA = assay: Expression modulatory activity for ACAT-1 mRNA in human monocyte-derived cells; conditions: THP-1 cells, test compound 1 μM, 2 days + 1 day; Not added = 100.0; Mean ± SEM (n = 3)
Procedure: (§1) In a RPMI medium containing a test compound (1 μM), PMA (phorbol 12-myristate 13-acetate, 400 ng/mL)-FBS (fetal bovine serum, 10%) was suspended human monocyte-derived THP-1 cells (purchased from Dainippon Pharmaceutical Co., Ltd.) (7.2×10^5 cell/mL). The obtained suspension was dispensed into a 24 well plate (0.5 mL/well) and cultured for 2 days (3.6×10^5 cells). After the medium was removed, a RPMI medium containing the test compound (1 μM), PMA(400 ng/mL)-FBS(10%) was added to the plate and it was cultured further for 1 day.
(§2) After the medium was removed, whole RNA was extracted from the obtained cells using RN easy Mini Kit (QIAGEN), and the expression amounts of ACAT-1 mRNA, CEH mRNA and human acidic ribosomal protein (huPO; 36B4) mRNA as an internal standard were measured by real-time quantitative RT-PCR according to TaqMan PCR method using a TaqMan EZ RT-PCR kit (Applied Biosystems).
In the above mentioned method, for the measurement of the expression amount of the ACAT-1mRNA, oligo DNAs represented by
5′-[…]-3′ (SEQ ID NO: 19),
5′-[…]-3′ (SEQ ID NO: 20) and […]
(§3) The expression amount of human acidic ribosomal protein (huPO; 36B4) mRNA was measured according to the method similar to Experimental Example 1. Real-time quantitative RT-PCR was carried out similarly to Experimental Example 1. […]

[1] = test system: human monocyte-derived THP-1 cells; assay: Foaming-suppressant activity in human monocyte-derived cells (intracellular lipid content); conditions: for Intracellular lipid content FC (free cholesterol) / Intracellular lipid content TC (total cholesterol) / Intracellular lipid content CE (cholesteryl ester): test compound 1 μM, rabbit β-VLDL loading 2 days; for Intracellular lipid content FC (free cholesterol): Not added = 80.8 ± 1.2, Mean ± SEM (n = 3); for Intracellular lipid content TC (total cholesterol): Not added = 114.8 ± 1.8, Mean ± SEM (n = 3); for Intracellular lipid content CE (cholesteryl ester): calculated as TC minus FC, Not added = 34.0 ± 2.3, Mean ± SEM (n = 3)
Procedure: In a RPMI1640 medium containing a test compound (1 μM), PMA (phorbol 12-myristate 13-acetate, 400 ng/ml) and 10% fetal bovine serum was suspended human monocyte-derived THP-1 cells (purchased from Dainippon Pharmaceutical Co., Ltd.). The obtained suspension was dispensed into a 12-well plate (7.2×10^5 cells) and was cultured for 3 days. The obtained cell was further cultured in a RPMI1640 medium containing the test compound and 0.2 mM oleic acid-0.2% bovine serum albumin complex and rabbit β-VLDL (200 μg cholesterol/mL) for 2 days, and then the total lipids in the cells were extracted with a mixed solution of n-hexane/isopropanol (3:2). The amounts of the total cholesterol (TC) and free cholesterol (FC) in the extract were measured with a enzyme method [using Cholesterol E-Test Wako (trade name, Wako Pure Chemical Industries, Ltd.)], and the amount of cholesteryl ester (CE) was calculated by the difference between the two cholesterol amounts. The intracellular lipid content was then evaluated by dividing the amounts of these lipids by the amount of cell protein (measured using BCA assay kit (Pierce)). In the Table, TC represents total cholesterol, FC represents free cholesterol and CE represents cholesteryl ester.

ABCG1 mRNA [2] = assay: Expression modulatory activity for ABCG1 mRNA in human monocyte-derived cells; conditions: THP-1 cells, test compound 1 μM, 24 hours; Not added = 100.0; Mean ± SEM (n = 3)
Procedure: (§4) To a PMA (phorbol 12-myristate 13-acetate, 400 ng/mL)-FBS (fetal bovine serum, 10%)-containing RPMI medium was suspended human monocyte -derived THP-1 cells (ATCC) (7×10^5 cell/mL), and the obtained suspension was dispensed into a 24-well plate (0.5 mL/well) and cultured for 3 days. After removing the medium, a FBS (fetal bovine serum, 10%)—containing RPMI1640 medium into which a test compound (1 μM) had been added was added to the 24-well plate and the plate was cultured for 24 hours. Whole RNA was extracted from the cultured cells using RNeasy Mini Kit (QIAGEN), and then the expression amounts of LXRα mRNA, ABCA1 mRNA, ABCG1 mRNA and Human acidic ribosomal protein (huPO; 36B4) mRNA as an internal standard were measured by real-time quantitative RT-PCR according to TaqMan PCR method using a TaqMan EZ RT-PCR kit (Applied Biosystems). […]
(§5) The expression amount of Human acidic ribosomal protein (huPO; 36B4) mRNA was measured using Pre-Developed TaqMan Assay Reagents Endogenous Control (Human Acidic ribosomal protein (huPO)) (Applied Biosystems), and VIC was used as a reporter dye and TAMRA was used as a quencher dye. […]

LXRα mRNA [3] = assay: Expression modulatory activity for LXRα mRNA in human monocyte-derived cells; conditions: THP-1 cells, test compound 1 μM, 24 hours; Not added = 100.0; Mean ± SEM (n = 3)
Procedure: as §4, §5

ABCG1 mRNA [4] = assay: Expression modulatory activity for ABCG1 mRNA in mouse macrophages; conditions: C57BL6/J mouse peritoneal macrophages, test compound 1 μM, 24 hours; Not added = 100.0; Mean ± SEM (n = 3)
Procedure: (§6) A C57BL6/J mouse (male, 10 weeks old) was intraperitoneally administered with 1 mL of a 5% thioglycolic acid medium (Wako Pure Chemical Industries, Ltd.). After 4 days, intraperitoneal cells were collected with phosphate-buffered saline (PBS), and macrophages were separated in a 3% BSA-containing DMEM medium as cells adhesive to a plate. After incubation of the macrophages overnight in a DMEM medium containing 10% human lipoprotein-removed serum, the medium was replaced with a DMEM medium containing a test compound (1 μM) and 10% fetal bovine serum and cultured for 24 hours.
(§7) After the medium was removed, whole RNA was extracted from the obtained macrophage using RNeasy Mini Kit (QIAGEN) and then the expression amounts of the LXRαmRNA, ABCG1mRNA and mouse acidic ribosomal protein (36B4) mRNA as an internal standard were measured by real-time quantitative RT-PCR according to TaqMan PCR method using a TaqMan EZ RT-PCR kit (Applied Biosystems). […]
(§8) Real-time quantitative PCR was carried out according to the similar manner to Experimental Example 1.
(§9) Based on the ratio of the expression amount of the LXRαmRNA and ABCG1mRNA relative to the internal standard (expression amount of mouse acidic ribosomal protein mRNA), the expression modulatory activities for the LXRα mRNA and ABCG1 mRNA of the test compound were evaluated.

LXRα mRNA [5] = assay: Expression modulatory activity for LXRα mRNA in mouse macrophages; conditions: C57BL6/J mouse peritoneal macrophages, test compound 1 μM, 24 hours; Not added = 100.0; Mean ± SEM (n = 3)
Procedure: as §6, §7, §8, §9

ABCA1 mRNA = assay: Expression modulatory activity for ABCA1 mRNA in human monocyte-derived cells; conditions: THP-1 cells, test compound 1 μM, 24 hours; Not added = 100.0; Mean ± SEM (n = 3)
Procedure: as §4, §5

CEH mRNA = assay: Expression modulatory activity for CEH mRNA in human monocyte-derived cells; conditions: THP-1 cells, test compound 1 μM, 2 days + 1 day; Not added = 100.0; Mean ± SEM (n = 3)
Procedure: as §1, §2
Furthermore, for the measurement of the expression amount of the CEH mRNA, oligo DNAs represented by
5′-AGCCCTTGGCTGAGCAAA-3′ (SEQ ID NO: 22),
5′-GTCGCAGGCAGTGAACCAT-3′ (SEQ ID NO: 23) and
5′-[…]-3′ (SEQ ID NO: 24) […]
as §3

| Compound | Expression amount of mRNA (Relative ratio % to internal standard) ACAT-1 (ACAT-1 mRNA) | Intracellular lipid content FC (free cholesterol) [1] | Intracellular lipid content TC (total cholesterol) [1] | Intracellular lipid content CE (cholesteryl ester) [1] | Expression amount of mRNA (Relative ratio % to internal standard) ABCG1 (ABCG1 mRNA [2]) | Expression amount of mRNA (Relative ratio % to internal standard) LXRα (LXRα mRNA [3]) | Expression amount of mRNA (Relative ratio % to internal standard) ABCG1 (ABCG1 mRNA [4]) | Expression amount of mRNA (Relative ratio % to internal standard) LXRα (LXRα mRNA [5]) | Expression amount of mRNA (Relative ratio % to internal standard) ABCA1 (ABCA1 mRNA) | Expression amount of mRNA (Relative ratio % to internal standard) CEH (CEH mRNA) | foaming-suppressant activity ([1]; conclusion based on the decrease in the amount of cholesteryl ester, 1 μM) |
| --- | --- | --- | --- | --- | --- | --- | --- | --- | --- | --- | --- |
| CCc1ccc(CCOc2ccc(CC3SC(=O)NC3=O)cc2)nc1 (stereo not drawn) [Pioglitazone hydrochloride, reference compound] | 65.8 ± 1.9% | 72.7 ± 0.4 μg/mg cell protein | 100.3 ± 0.3 μg/mg cell protein | 27.6 ± 0.5 μg/mg cell protein | 252.0 ± 9.2% | 165.7 ± 4.6% | 195.2 ± 23.1% | 145.3 ± 17.9% | 108.2 ± 3.5% | 148.6 ± 9.2% | – |
| Cc1oc(-c2ccccc2)nc1COc1ccc(CO/N=C(\CCC(=O)O)c2ccccc2)cc1 [Compound (7), E-4-[4-(5-methyl-2-phenyl-4-oxazolylmethoxy)benzyloxyimino]-4-phenylbutyric acid] | 66.1 ± 1.5% | 72.0 ± 1.3 μg/mg cell protein | 95.8 ± 1.4 μg/mg cell protein | 23.7 ± 1.9 μg/mg cell protein | 265.5 ± 22.0% | 160.1 ± 9.0% | 159.1 ± 6.1% | 173.0 ± 9.9% | 113.5 ± 5.5% | 159.4 ± 1.9% | have foaming-suppressant activity |
